# What was measured:
# weeds = assay: Ex20 PRE greenhouse; assay type: in vivo; conditions: weed and rate in the words
# Excerpt: Herbicides: • 2,4 DC-21 (36.7% CS): 125, 170, 210, or 250 g ai/ha alone and as tank-mix with dimethenamid-P • Dimethanamid-P (Outlook, 63.9%): 250, 375, 500 g ai/ha in combination with 2,4 DC and alone, additional treatment alone at 750 g ai/ha. • Metazachlor (Butisan 43.1%): 500 g ai/ha
# Herbicides included as standards for comparison were metazachlor plus dimethenamid-P (500 g) as tank mix combination. […] Treatments were replicated 3 times. […] Thereafter flats were watered and fertilized routinely.
# Wild oat = assay: Ex12 PRE 2,4-DC + dimethenamid-P, % control 28 DAT, Colby; assay type: in vivo, Avena fatua
# Protocol: (§1) The tested weeds include: wild buckwheat (Polygonum convolvulus, POLCO), velvetleaf (Abutilon theophrasti, ABUTH), cheat (Bromus secalinus, BROSE), wild oat (Avena fatua, AVEFA), radish (Raphanus sativus, RAPSN), corn poppy (Papaver rhoeas, PAPRH), yellow foxtail (Setaria pumila, SETLU), Italian ryegrass (Lolium perenne ssp. multiflorum, LOLMU). The tested crop was Oilseed rape.
# (§2) This greenhouse study was conducted to assess the preemergence (PRE) weed control and oilseed rape tolerance with 2,4 DC (CS 36.7%) and dimethenamid-P (Outlook®, 63.9%) tank-mix combinations.
# (§3) Metazachlor (Butisan, 43.1%) plus dimethenamid-P applied as tank mix at 500 g each was applied as commercial standard. Treatments were replicated 3 times and flats were watered after planting but before the treatment and then lightly watered after treatment application. Thereafter flats were watered and fertilized routinely.
# Wild buckwheat = assay: as above; assay type: in vivo, Polygonum convolvulus
# Protocol: as §1, §2, §3
# [1] = dimethenamid-P alone 250 g ai/ha
# [2] = dimethenamid-P alone 375 g ai/ha
# [3] = dimethenamid-P alone 500 g ai/ha
compound,measurement,setting,value
"COC[C@H](C)N(C(=O)CCl)c1c(C)csc1C [Dimethenamid-P, dimethenamid-P, reference compound]",weed control in words,weeds,"alone controlled redroot pigweed, giant foxtail, and goosegrass at all rates; common chickweed at ≥375 g; shepherd's-purse at ≥500 g; and Canada thistle at 750 g"
same,Y,Wild oat; [1],66%
same,Y,Wild oat; [2],73%
same,Y,Wild oat; [3],90%
same,Y,Wild buckwheat; [1],32%
same,Y,Wild buckwheat; [2],70%
same,Y,Wild buckwheat; [3],63%

# Reference: patent publication US12616203B2, “Use of 3-isoxazolidinones compounds as selective herbicides” (FMC Corporation, priority 2014, dated 2026)
